{
  "source": "ChEMBL document CHEMBL3407474",
  "about": "“Structural insight of glitazone for hepato-toxicity: Resolving mystery by PASS” (Bioorg Med Chem Lett, 2015)",
  "key": {"[1]": {"system": "HepG2", "experiment": "Induction of p53 protein level in human HepG2 cells at 50 uM upto 24 hrs by immunoblot analysis", "assay_type": "functional, cell-based"}, "[2]": {"system": "HepG2", "experiment": "Induction of p53 protein level in human HepG2 cells at 50 uM by immunoblot analysis", "assay_type": "functional, cell-based", "details": "TDE = time-dependent effect"}},
  "note": "Calls of active or inactive are those of the source. No cut-off for these calls is given here.",
  "data": [
    {"compound": "CCc1ccc(CCOc2ccc(CC3SC(=O)NC3=O)cc2)nc1", "note": "(centres undefined)", "values": [
      {"measurement": "Activity", "setting": "[1]", "value": "inactive"}
    ]},
    {"compound": "CN(CCOc1ccc(CC2SC(=O)NC2=O)cc1)c1ccccn1", "note": "(centres undefined)", "values": [
      {"measurement": "Activity", "setting": "[1]", "value": "inactive"}
    ]},
    {"compound": "Cc1c(C)c2c(c(C)c1O)CCC(C)(COc1ccc(CC3SC(=O)NC3=O)cc1)O2", "note": "(centres undefined)", "values": [
      {"measurement": "Activity", "setting": "[1]", "value": "Active"},
      {"measurement": "Activity", "setting": "[2]", "value": "tde"}
    ]}
  ]
}
